According to patent US20240400542A1 (University of Virginia Patent Foundation, priority 2021, published 2024):

Tests used:
Assay in all cases: SILAC competitive chemical proteomic assay (TH211 probe, LC-MS/MS)
Type in all cases: cell-based
14-3-3 protein epsilon = molecular target: T1, 14-3-3 protein epsilon (Homo sapiens, UniProt P62258); conditions: TH207 inhibitor; HEK293T soluble fraction; P62258.1 lysine 215
T1 construct: endogenous in cells; host or cells: HEK293T
T1 sequence (P62258 1-255): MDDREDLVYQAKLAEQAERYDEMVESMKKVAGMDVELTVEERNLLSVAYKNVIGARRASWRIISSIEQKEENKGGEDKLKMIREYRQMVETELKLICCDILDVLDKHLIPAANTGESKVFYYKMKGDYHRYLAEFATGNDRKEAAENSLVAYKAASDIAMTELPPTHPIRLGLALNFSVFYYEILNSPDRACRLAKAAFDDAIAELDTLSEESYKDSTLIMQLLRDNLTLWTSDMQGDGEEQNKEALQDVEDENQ
Procedure: (§1) The light and heavy proteomes (2.3 mg/mL, 432 μL) prepared from HEK293T cells that were pretreated in situ with vehicle (DMSO) or the inhibitor (2 μM), respectively, at 37° C. for 1 hr followed by probe TH211 treatment (50 μM) for 2 h, were directly were subjected to click reaction with the desthiobiotin-PEG3-azide (10 mM in DMSO, 10 μL, final concentration 200 μM) in the presence of TCEP (50 mM, 10 μL), TBTA (1.7 mM, 33 μL) and CuSO4 (50 mM, 10 μL) at room temperature for 1 hr. The light and the heavy samples were mixed in the chloroform-methanol extraction step. The subsequent steps including reduction with dithiothreitol, alkylation with iodoacetamide, digestion with Trypsin/Lys-C, enrichment with avidin beads were conducted as previously described^26.

Alpha-enolase = molecular target: T2, Alpha-enolase (Homo sapiens, UniProt P06733); conditions: TH207 inhibitor; HEK293T soluble fraction; P06733.2 lysine 80
T2 construct: endogenous in cells; host or cells: HEK293T
Procedure: as §1

Coronin-1C = molecular target: T3, Coronin-1C (Homo sapiens, UniProt Q9ULV4); conditions: TH207 inhibitor; HEK293T soluble fraction; Q9ULV4.1 tyrosine 301
T3 construct: endogenous in cells; host or cells: HEK293T
Procedure: as §1

Cytochrome c = molecular target: T4, Cytochrome c (Homo sapiens, UniProt P99999); conditions: TH207 inhibitor, HEK293T soluble fraction
T4 construct: endogenous in cells; host or cells: HEK293T
Procedure: as §1

Isoleucine tRNA ligase = molecular target: T5, Isoleucine tRNA ligase (Homo sapiens, UniProt Q9NSE4); conditions: TH207 inhibitor; HEK293T soluble fraction; Q9NSE4.2 tyrosine 260
T5 construct: endogenous in cells; host or cells: HEK293T
T5 sequence (Q9NSE4 49-1012): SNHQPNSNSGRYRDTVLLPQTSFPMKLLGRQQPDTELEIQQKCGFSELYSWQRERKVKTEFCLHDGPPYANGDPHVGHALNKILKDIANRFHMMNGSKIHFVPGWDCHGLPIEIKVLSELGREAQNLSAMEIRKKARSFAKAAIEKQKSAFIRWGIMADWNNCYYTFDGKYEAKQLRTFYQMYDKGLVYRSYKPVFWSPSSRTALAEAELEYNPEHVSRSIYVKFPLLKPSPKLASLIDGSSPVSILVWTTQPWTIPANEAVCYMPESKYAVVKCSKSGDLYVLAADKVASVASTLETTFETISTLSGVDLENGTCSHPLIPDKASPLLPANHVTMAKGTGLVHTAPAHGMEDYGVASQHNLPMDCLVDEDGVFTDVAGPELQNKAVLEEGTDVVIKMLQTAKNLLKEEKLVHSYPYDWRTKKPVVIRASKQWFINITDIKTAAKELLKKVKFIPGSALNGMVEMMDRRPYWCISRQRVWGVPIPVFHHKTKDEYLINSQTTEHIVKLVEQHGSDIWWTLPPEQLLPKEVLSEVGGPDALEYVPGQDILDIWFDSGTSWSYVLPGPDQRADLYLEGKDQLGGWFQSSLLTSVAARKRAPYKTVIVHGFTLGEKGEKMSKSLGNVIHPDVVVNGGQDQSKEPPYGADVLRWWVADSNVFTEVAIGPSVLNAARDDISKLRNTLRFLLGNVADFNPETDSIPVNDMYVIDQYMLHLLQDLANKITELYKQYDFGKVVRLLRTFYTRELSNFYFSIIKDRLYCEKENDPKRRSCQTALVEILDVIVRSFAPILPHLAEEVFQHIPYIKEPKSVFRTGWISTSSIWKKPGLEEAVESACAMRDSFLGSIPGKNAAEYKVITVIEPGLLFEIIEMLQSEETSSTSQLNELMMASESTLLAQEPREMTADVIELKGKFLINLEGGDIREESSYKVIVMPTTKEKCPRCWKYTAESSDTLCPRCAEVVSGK
Procedure: as §1

Major capsid protein VP1 = conditions: TH207 inhibitor; HEK293T soluble fraction; Q98WD1 lysine 235
Procedure: as §1

Perilipin-2 = molecular target: T6, Perilipin-2 (Homo sapiens, UniProt Q99541); conditions: TH207 inhibitor; HEK293T soluble fraction; Q99541.2 tyrosine 190
T6 construct: endogenous in cells; host or cells: HEK293T
T6 sequence (Q99541 1-437): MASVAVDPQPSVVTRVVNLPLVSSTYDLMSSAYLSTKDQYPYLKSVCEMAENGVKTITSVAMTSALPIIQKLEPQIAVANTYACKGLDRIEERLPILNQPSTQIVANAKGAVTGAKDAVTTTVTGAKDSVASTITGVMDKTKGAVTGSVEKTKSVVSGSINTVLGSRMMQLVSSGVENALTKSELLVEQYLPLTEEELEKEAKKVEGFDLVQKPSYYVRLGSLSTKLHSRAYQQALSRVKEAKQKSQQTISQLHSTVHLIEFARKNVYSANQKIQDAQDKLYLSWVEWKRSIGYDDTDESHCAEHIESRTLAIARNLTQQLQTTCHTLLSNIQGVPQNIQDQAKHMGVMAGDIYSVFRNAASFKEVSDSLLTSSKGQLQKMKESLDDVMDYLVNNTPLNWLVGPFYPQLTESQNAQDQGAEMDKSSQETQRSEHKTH
Procedure: as §1

[1] = molecular target: T7, Phosphatidylinositol transfer protein beta isoform (Homo sapiens, UniProt P48739); conditions: TH207 inhibitor, HEK293T soluble fraction
T7 construct: endogenous in cells; host or cells: HEK293T
T7 sequence (P48739 1-271): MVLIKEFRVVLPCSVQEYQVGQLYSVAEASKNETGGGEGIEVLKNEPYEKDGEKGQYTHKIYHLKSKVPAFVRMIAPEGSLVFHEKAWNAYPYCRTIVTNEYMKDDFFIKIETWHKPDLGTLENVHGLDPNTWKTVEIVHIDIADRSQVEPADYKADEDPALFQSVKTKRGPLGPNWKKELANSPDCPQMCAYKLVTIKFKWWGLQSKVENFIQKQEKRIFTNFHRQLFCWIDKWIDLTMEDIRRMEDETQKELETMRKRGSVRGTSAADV
Procedure: as §1

T4 sequence (P99999 whole entry): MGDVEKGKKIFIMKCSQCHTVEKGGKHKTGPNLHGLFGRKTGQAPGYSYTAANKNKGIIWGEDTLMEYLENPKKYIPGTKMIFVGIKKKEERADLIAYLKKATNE
T3 sequence (Q9ULV4 whole entry): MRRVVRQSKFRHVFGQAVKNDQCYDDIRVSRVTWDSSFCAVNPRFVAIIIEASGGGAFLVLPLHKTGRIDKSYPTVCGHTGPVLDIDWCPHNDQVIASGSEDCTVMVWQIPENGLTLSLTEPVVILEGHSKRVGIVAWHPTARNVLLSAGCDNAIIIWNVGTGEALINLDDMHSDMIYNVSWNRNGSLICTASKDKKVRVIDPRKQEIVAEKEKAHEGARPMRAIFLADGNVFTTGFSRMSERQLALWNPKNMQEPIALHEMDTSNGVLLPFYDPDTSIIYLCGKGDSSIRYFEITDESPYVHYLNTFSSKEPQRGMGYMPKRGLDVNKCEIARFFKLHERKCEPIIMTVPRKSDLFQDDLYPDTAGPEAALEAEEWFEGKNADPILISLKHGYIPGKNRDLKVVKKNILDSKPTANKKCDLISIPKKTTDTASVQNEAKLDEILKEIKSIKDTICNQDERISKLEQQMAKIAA
T2 sequence (P06733 whole entry): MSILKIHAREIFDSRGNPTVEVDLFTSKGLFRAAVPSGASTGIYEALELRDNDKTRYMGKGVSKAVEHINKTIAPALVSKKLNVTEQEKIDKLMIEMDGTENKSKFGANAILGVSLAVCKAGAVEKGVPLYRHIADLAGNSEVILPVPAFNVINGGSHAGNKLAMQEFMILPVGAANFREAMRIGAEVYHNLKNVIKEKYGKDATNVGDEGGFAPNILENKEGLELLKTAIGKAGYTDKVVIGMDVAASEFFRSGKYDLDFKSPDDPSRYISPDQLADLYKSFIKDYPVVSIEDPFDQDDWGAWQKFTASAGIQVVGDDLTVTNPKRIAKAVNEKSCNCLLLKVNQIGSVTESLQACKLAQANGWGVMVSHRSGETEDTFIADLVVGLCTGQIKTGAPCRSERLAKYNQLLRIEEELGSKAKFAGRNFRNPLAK

Question: Which “Normalized SILAC ratio (SR), 14-3-3 protein epsilon K215” value (14-3-3 protein epsilon) does the source give for `Cc1ccc(S(=O)(=O)n2cc(CCN3CCC(=C(c4ccc(F)cc4)c4ccc(F)cc4)CC3)nn2)cc1` [TH207, 4-(Bis(4-fluorophenyl)methylene)-1-(2-(1-tosyl-1H-1,2,3-triazol-4-yl)ethyl)piperidine] here?
Answer: 3.7

Question: And the “Normalized SILAC ratio (SR), Alpha-enolase K80” value (Alpha-enolase)?
Answer: 1.6

Question: And the “Normalized SILAC ratio (SR), Coronin-1C Y301” value (Coronin-1C)?
Answer: 20

Question: What about the “Normalized SILAC ratio (SR), Cytochrome c K28” value (Cytochrome c; P99999.2 lysine 28) of the same compound?
Answer: 1.4

Question: What about the “Normalized SILAC ratio (SR), Cytochrome c K40” value (Cytochrome c; P99999.2 lysine 40) of the same compound?
Answer: 1.5

Question: What about the “Normalized SILAC ratio (SR), Cytochrome c K54” value (Cytochrome c; P99999.2 lysine 54) of the same compound?
Answer: 1.8

Question: What about the “Normalized SILAC ratio (SR), Cytochrome c Y49” value (Cytochrome c; P99999.2 tyrosine 49) of the same compound?
Answer: 1.5

Question: And the “Normalized SILAC ratio (SR), Isoleucine tRNA ligase Y260” value (Isoleucine tRNA ligase)?
Answer: 1.8

Question: What about the “Normalized SILAC ratio (SR), Major capsid protein VP1 K235” value (Major capsid protein VP1) of the same compound?
Answer: 1.3

Question: And the “Normalized SILAC ratio (SR), Perilipin-2 Y190” value (Perilipin-2)?
Answer: 3.5

Question: And the “Normalized SILAC ratio (SR), Phosphatidylinositol transfer protein beta isoform K155” value ([1]; P48739.2 lysine 155)?
Answer: 1.8

Question: What about the “Normalized SILAC ratio (SR), Phosphatidylinositol transfer protein beta isoform Y154” value ([1]; P48739.2 tyrosine 154) of the same compound?
Answer: 1.8
